Measurements from patent US20230270692A1, “COMPOUNDS FOR CHRONIC DISORDERS” (Pillai Universal LLC, priority 2020, published 2023).
Converted amounts (≈) assume the structure as drawn. Like-named read-outs stand apart in the source and are kept apart here.

Legend:
SARS-CoV-2 = assay type: cell-based
PANC-1 xenograft = PANC-1 xenograft mouse model; assay type: in vivo
Procedure: Study Design: A PANC-1 xenograft mouse model was carried out according to the experimental design described in FIG. 21A. Tumor volume was monitored over a 30-day period upon administration of PBS alone (vehicle control), 25 mg/kg gemcitabine, and 10 mg/kg Compound I.

[1] = Acute oral toxicity (OECD 423); assay type: in vivo
Procedure: Experimental Design: The assay of acute toxicity was performed according to the Organization for Economic Cooperation and Development (OECD) guideline 423 (OECD, 2001a). A total of 60 mice weighing between 27 and 37 g were randomly divided into six experimental groups of 10 mice each (5 males and 5 females per group). After fasting overnight Compound I was administered to each treatment group at single doses of 200, 500 1000, 2000, mg/kg, respectively, by oral gavage. The control groups were treated with the same volume of distilled water. After dosing, all animals were observed individually for mortality and changes in general behavior during the first 30 min, then at 2, 4, 6, 10 and 24 h following treatment. Symptoms of toxicity such as hypo-activity, piloerection, breathing difficulty, tremors, and convulsion were evaluated after administration of the various doses. The LD 50 value was determined according to the method described by the OECD Guidelines 423 (OECD, 2001a). During the remaining experimental period, the animal observation was performed at least once per day for the post-dosing period of 14 days. Body weights were measured at the initiation of treatment, and on days 4, 7, 11 and 14 after administration. On the 14th day, the mice were sacrificed under anesthesia, and vital organs (heart, kidneys, lung, spleen and liver) were removed for macroscopic examination.

[2] = Pharmacokinetics and tissue distribution in nude mouse; assay type: in vivo
Procedure: The pharmacokinetics and toxicity of Compound I was studied in vivo in a nude mouse model.
Tissue-to-plasma ratios were taken of Compound I in animals at 1, 2, 4, 24 h after administration. At 60 min, the highest levels of Compound I were found in the lungs, brain, stomach, liver, mammary gland, and small intestine, all of which are highly perfused organs followed by spleen and heart. Up to 72 h, Compound I was detected in most organs, but not in the femur and kidney. The ratios in most organs continued to increase up to 4 h. […] There was no change in body weight monitored for a 7-day period after drug administrations.
As explained above, a pharmacokinetic study investigated the concentrations of Compound I at different time intervals after either oral administration or intravenous injection. […] In the gastrointestinal tract, a significant amount of Compound I accumulated in the stomach, implying that Compound I may be absorbed through stomach tissue and distributed throughout the body. […] Collectively, our current findings will provide a more complete understanding of the biological actions of Compound I in vivo.

[3] = test system: Pancreatic adenocarcinoma cells (PANC); assay: MTT cell viability of pancreatic cancer cells; assay type: cell-based, Human
Procedure: The synthesized compounds of Formula 1-4 were evaluated for cell proliferation, apoptosis, cell cycle arrest, the generation of reactive oxygen species and calcium were measured using MTT assay and flow cytometry, respectively. The expression of apoptosis- and proliferation-related proteins was determined by western blotting. The effect of molecules on apoptosis-related mRNA expression in cancer cells was detected by RT-PCR.
Changes in cell morphology were detected by the presence of cell membrane blebbing, chromatin condensation, and formation of apoptotic bodies (FIG. 10A).

[4] = test system: cytotoxic cells, macrophages, NK cell and DC; assay: Immune response
From the text: Compound I has the ability to activate CD4+ helper […] and generates an immune response in the body to protect against viral infections, Specifically, Compound I increases the number and activity of cytotoxic cells and promotes the activation of macrophages NK cell and DC which facilitate APC to CD4+ and CD8+ through capture, internalization, processing and presentation of antigens via MHC class I and II molecules.

[5] = treatment group compared to control group

**Q.** Which inhibition (SARS-CoV-2; 1 μM added after 10 h post infection) does the source give for `COc1cc(/C=C/C(=O)/C=C/C=C/c2cc(OC)c(O)c(OC)c2)cc(OC)c1` [Compound I] here?
**A.** The inhibition was “no inhibition”.

**Q.** And the inhibition (SARS-CoV-2; 1 μM added between 6 and 8 h post infection)?
**A.** The inhibition was “Less inhibition”.

**Q.** And the inhibition (SARS-CoV-2; 1 μM added between 2 h pre-infection and 2-h post infection)?
**A.** The inhibition was “Maximal inhibition”.

**Q.** What about the “viral RNA levels (qPCR)” value (SARS-CoV-2; increasing concentrations) of the same molecule?
**A.** Its value is “decreased”.

**Q.** And the imaging studies (PANC-1 xenograft; 10 mg/kg)?
**A.** Its imaging studies is “no detectable tumor”.

**Q.** What about the tumor volume (PANC-1 xenograft; day 5 to day 30, 25 mg/kg gemcitabine, 10 mg/kg Compound I) of the same molecule?
**A.** Its tumor volume is “decrease”.

**Q.** What about the survival (PANC-1 xenograft; mouse, in vivo) of the same molecule?
**A.** The survival was “improved survival”.

**Q.** And the treatment related death ([1]; acute, 14-day observation, both sexes)?
**A.** The treatment related death was “no treatment related death was observed”.

**Q.** What about the LD50 at 14 days ([1]; both sexes, mouse, in vivo, oral, read-out: median lethal dose (LD50)) of the same molecule?
**A.** The LD50 at 14 days was > 2000 mg/kg.

**Q.** What about the GHS classification ([1]; both, mouse, in vivo, 14 days) of the same molecule?
**A.** The GHS classification was “Category 5”.

**Q.** What about the Toxicity ([2]; 10 mg/kg IV) of the same molecule?
**A.** The Toxicity was “No toxicity was observed”.

**Q.** What about the “tissue-to plasma ratio in the hippocampus and brain” value ([2]; 1, 2, and 24 h after dosing) of the same molecule?
**A.** The value was “increased significantly and continuously”.

**Q.** What about the body weight ([2]; 7-day period after administration) of the same molecule?
**A.** The body weight was “no change”.

**Q.** And the tissue distribution ([2]; intravenous administration)?
**A.** Its tissue distribution is “widely distributed in several tissues”.

**Q.** And the “absorbed or distributed to the vital organs” value ([2]; mouse, in vivo)?
**A.** The value was “approximately 98%”.

**Q.** And the “excreted in either urine or feces” value ([2]; mouse, in vivo)?
**A.** Its value is “less than 2%”.

**Q.** And the “time Compound I was detected in most organs” value ([2]; not in the femur and kidney)?
**A.** The value was “Up to 72 h”.

**Q.** And the “signs of discomfort, cardiovascular or respiratory disorders” value ([2]; throughout the study period)?
**A.** The value was “No signs of discomfort or any cardiovascular or respiratory disorders were observed”.

**Q.** What about the “increase in the area under the curve (AUC)” value [2, 5] of the same molecule?
**A.** The value was 28 fold.

**Q.** And the “increase in the maximum plasma concentration (Cmax)” value [2, 5]?
**A.** Its value is 29 fold.

**Q.** And the cell viability ([3]; 24 and 48 h, 1-100 μg/mL)?
**A.** Its cell viability is “decreased significantly in time- and dose-dependent manners”.

**Q.** What about the cytotoxicity at 10 µg/mL ([3]; Homo sapiens, Pancreatic cancer cell, read-out: decrease in viable cells) of the same molecule?
**A.** Its cytotoxicity at 10 µg/mL is ~65.5%.

**Q.** What about the IC50 ([3]; Homo sapiens, Pancreatic cancer cell, PANC cells, after 24 hours of exposure) of the same molecule?
**A.** Its IC50 is 5.74 ± 0.02 µg/mL (≈ 14.5 µM).

**Q.** What about the “number and activity of cytotoxic cells” value [4] of the same molecule?
**A.** Its value is “increases”.
